Test system: WSU-DLCL2 cells
Test: RT2 Glucocorticoid signaling PCR array, WSU-DLCL2 (WSU) cell line (Table 4c)
Type: cell-based

C[C@]12C=CC(=O)C=C1CC[C@@H]1[C@@H]2[C@@H](O)C[C@@]2(C)[C@H]1CC[C@]2(O)C(=O)CO [Prednisolone, prednisolone]
ΔCT (B2M), MERTK (gene MERTK): 13.379
Ct Values, MT2A (gene MT2A): 24.518
ΔCT (B2M), MT2A (gene MT2A): 5.373
ΔΔCT, MT2A (gene MT2A, compared to DMSO): 0.106
Ct Values, NFKBIA (gene NFKBIA): 22.895
ΔCT (B2M), NFKBIA (gene NFKBIA): 3.750
ΔΔCT, NFKBIA (gene NFKBIA, compared to DMSO): 0.829
Ct Values, NR3C1 (gene NR3C1): 23.110
ΔCT (B2M), NR3C1 (gene NR3C1): 3.965
ΔΔCT, NR3C1 (gene NR3C1, compared to DMSO): 0.165
Ct Values, PDCD7 (gene PDCD7): 23.874
ΔCT (B2M), PDCD7 (gene PDCD7): 4.729
ΔΔCT, PDCD7 (gene PDCD7, compared to DMSO): 0.000
Ct Values, PDP1 (gene PDP1): 24.957
ΔCT (B2M), PDP1 (gene PDP1): 5.812
ΔΔCT, PDP1 (gene PDP1, compared to DMSO): −0.109
Ct Values, PER1 (gene PER1): 24.989
ΔCT (B2M), PER1 (gene PER1): 5.844
ΔΔCT, PER1 (gene PER1, compared to DMSO): 0.185
Ct Values, PER2 (gene PER2): 24.218
ΔCT (B2M), PER2 (gene PER2): 5.073
ΔΔCT, PER2 (gene PER2, compared to DMSO): 0.072
Ct Values, PIK3R1 (gene PIK3R1): 23.429
ΔCT (B2M), PIK3R1 (gene PIK3R1): 4.284
ΔΔCT, PIK3R1 (gene PIK3R1, compared to DMSO): 0.000
Ct Values, PLD1 (gene PLD1): 35.266
ΔCT (B2M), PLD1 (gene PLD1): 16.121
Ct Values, PLEKHF1 (gene PLEKHF1): 26.977
ΔCT (B2M), PLEKHF1 (gene PLEKHF1): 7.832
ΔΔCT, PLEKHF1 (gene PLEKHF1, compared to DMSO): 0.077
Ct Values, POU2F1 (gene POU2F1): 24.368
ΔCT (B2M), POU2F1 (gene POU2F1): 5.223
ΔΔCT, POU2F1 (gene POU2F1, compared to DMSO): 0.439
Ct Values, POU2F2 (gene POU2F2): 22.565
ΔCT (B2M), POU2F2 (gene POU2F2): 3.420
ΔΔCT, POU2F2 (gene POU2F2, compared to DMSO): −0.753
Ct Values, RASA3 (gene RASA3): 23.454
ΔCT (B2M), RASA3 (gene RASA3): 4.309
ΔΔCT, RASA3 (gene RASA3, compared to DMSO): −0.193
Ct Values, RGS2 (gene RGS2): 23.962
ΔCT (B2M), RGS2 (gene RGS2): 4.817
ΔΔCT, RGS2 (gene RGS2, compared to DMSO): 1.365
Ct Values, RHO8 (gene RHO8): 28.803
ΔCT (B2M), RHO8 (gene RHO8): 9.658
ΔΔCT, RHO8 (gene RHO8, compared to DMSO): −0.616
Ct Values, RPLP0 (gene RPLP0): 15.330
ΔCT (B2M), RPLP0 (gene RPLP0): −3.815
Ct Values, SESN1 (gene SESN1): 25.915
ΔCT (B2M), SESN1 (gene SESN1): 6.770
ΔΔCT, SESN1 (gene SESN1, compared to DMSO): −2.469
Ct Values, SGK1 (gene SGK1): 27.309
ΔCT (B2M), SGK1 (gene SGK1): 8.164
ΔΔCT, SGK1 (gene SGK1, compared to DMSO): 2.035
Ct Values, SLC10A6 (gene SLC10A6): 37.200
ΔCT (B2M), SLC10A6 (gene SLC10A6): 18.055
ΔΔCT, SLC10A6 (gene SLC10A6, compared to DMSO): 0.888
Ct Values, SLC19A2 (gene SLC19A2): 25.887
ΔCT (B2M), SLC19A2 (gene SLC19A2): 6.742
ΔΔCT, SLC19A2 (gene SLC19A2, compared to DMSO): −0.446
Ct Values, SLC22A5 (gene SLC22A5): 29.427
ΔCT (B2M), SLC22A5 (gene SLC22A5): 10.282
ΔΔCT, SLC22A5 (gene SLC22A5, compared to DMSO): 0.831
Ct Values, SNTA1 (gene SNTA1): 24.329
ΔCT (B2M), SNTA1 (gene SNTA1): 5.184
ΔΔCT, SNTA1 (gene SNTA1, compared to DMSO): 0.196
Ct Values, SPHK1 (gene SPHK1): 29.804
ΔCT (B2M), SPHK1 (gene SPHK1): 10.659
ΔΔCT, SPHK1 (gene SPHK1, compared to DMSO): 0.466
Ct Values, SPSB1 (gene SPSB1): 29.963
ΔCT (B2M), SPSB1 (gene SPSB1): 10.818
ΔΔCT, SPSB1 (gene SPSB1, compared to DMSO): 0.655
Ct Values, STAT5A (gene STAT5A): 25.699
ΔCT (B2M), STAT5A (gene STAT5A): 6.554
ΔΔCT, STAT5A (gene STAT5A, compared to DMSO): 0.437
Ct Values, STAT5B (gene STAT5B): 23.270
ΔCT (B2M), STAT5B (gene STAT5B): 4.125
ΔΔCT, STAT5B (gene STAT5B, compared to DMSO): 0.161
Ct Values, TBL1XR1 (gene TBL1XR1): 21.479
ΔCT (B2M), TBL1XR1 (gene TBL1XR1): 2.334
ΔΔCT, TBL1XR1 (gene TBL1XR1, compared to DMSO): 0.182
Ct Values, TNF (gene TNF): 24.151
ΔCT (B2M), TNF (gene TNF): 5.006
ΔΔCT, TNF (gene TNF, compared to DMSO): 0.762
Ct Values, TNFAIP3 (gene TNFAIP3): 26.733
ΔCT (B2M), TNFAIP3 (gene TNFAIP3): 7.588
ΔΔCT, TNFAIP3 (gene TNFAIP3, compared to DMSO): 2.092
Ct Values, TSC22D3 (gene TSC22D3): 22.481
ΔCT (B2M), TSC22D3 (gene TSC22D3): 3.336
ΔΔCT, TSC22D3 (gene TSC22D3, compared to DMSO): −2.728
Ct Values, USP2 (gene USP2): 20.884
ΔCT (B2M), USP2 (gene USP2): 1.739
ΔΔCT, USP2 (gene USP2, compared to DMSO): −1.457
Ct Values, USPS4 (gene USPS4): 26.453
ΔCT (B2M), USPS4 (gene USPS4): 7.308
ΔΔCT, USPS4 (gene USPS4, compared to DMSO): 0.209
Ct Values, VDR (gene VDR): 29.232
ΔCT (B2M), VDR (gene VDR): 10.087
ΔΔCT, VDR (gene VDR, compared to DMSO): −0.565
Ct Values, VLDLR (gene VLDLR): 30.596
ΔCT (B2M), VLDLR (gene VLDLR): 11.451
ΔΔCT, VLDLR (gene VLDLR, compared to DMSO): 2.649
Ct Values, ZFP36 (gene ZFP36): 25.166
ΔCT (B2M), ZFP36 (gene ZFP36): 6.021
ΔΔCT, ZFP36 (gene ZFP36, compared to DMSO): 1.104
Ct Values, ZHX3 (gene ZHX3): 25.570
ΔCT (B2M), ZHX3 (gene ZHX3): 6.425
ΔΔCT, ZHX3 (gene ZHX3, compared to DMSO): 0.101
Ct Values, ZNF281 (gene ZNF281): 23.608
ΔCT (B2M), ZNF281 (gene ZNF281): 4.463
ΔΔCT, ZNF281 (gene ZNF281, compared to DMSO): −0.094

From patent publication US10456407B2, “Combination therapy for treating cancer” (Epizyme, Inc., priority 2015, dated 2019)
